Measured values as given in patent publication US9340590B2 (priority 2011, dated 2016).
Read-outs that look alike come from different tables or passages of the source. Positions of bridges follow the written chain, without caps; N, C: chain ends. Non-standard residues stand in square brackets, D forms with d. Residues, ends and D or L forms follow the SMILES beside them. 1Nal = N[C@@H](Cc1cccc2ccccc12)C(=O)O; 2Nal = N[C@@H](Cc1ccc2ccccc2c1)C(=O)O; Abu = CC[C@H](N)C(=O)O

Key:
Experiment in all cases: cell-based
hNav1.3 = hNav1.3 (Homo sapiens, UniProt Q9NY46); settings: IonWorks Quattro, read-out: IWQ Use Nav1.3
hNav1.7 = hNav1.7 (Homo sapiens, UniProt Q15858); assay type: cell-based; settings: IonWorks Quattro
Sequence of hNav1.7 (Q15858 whole entry, looked up): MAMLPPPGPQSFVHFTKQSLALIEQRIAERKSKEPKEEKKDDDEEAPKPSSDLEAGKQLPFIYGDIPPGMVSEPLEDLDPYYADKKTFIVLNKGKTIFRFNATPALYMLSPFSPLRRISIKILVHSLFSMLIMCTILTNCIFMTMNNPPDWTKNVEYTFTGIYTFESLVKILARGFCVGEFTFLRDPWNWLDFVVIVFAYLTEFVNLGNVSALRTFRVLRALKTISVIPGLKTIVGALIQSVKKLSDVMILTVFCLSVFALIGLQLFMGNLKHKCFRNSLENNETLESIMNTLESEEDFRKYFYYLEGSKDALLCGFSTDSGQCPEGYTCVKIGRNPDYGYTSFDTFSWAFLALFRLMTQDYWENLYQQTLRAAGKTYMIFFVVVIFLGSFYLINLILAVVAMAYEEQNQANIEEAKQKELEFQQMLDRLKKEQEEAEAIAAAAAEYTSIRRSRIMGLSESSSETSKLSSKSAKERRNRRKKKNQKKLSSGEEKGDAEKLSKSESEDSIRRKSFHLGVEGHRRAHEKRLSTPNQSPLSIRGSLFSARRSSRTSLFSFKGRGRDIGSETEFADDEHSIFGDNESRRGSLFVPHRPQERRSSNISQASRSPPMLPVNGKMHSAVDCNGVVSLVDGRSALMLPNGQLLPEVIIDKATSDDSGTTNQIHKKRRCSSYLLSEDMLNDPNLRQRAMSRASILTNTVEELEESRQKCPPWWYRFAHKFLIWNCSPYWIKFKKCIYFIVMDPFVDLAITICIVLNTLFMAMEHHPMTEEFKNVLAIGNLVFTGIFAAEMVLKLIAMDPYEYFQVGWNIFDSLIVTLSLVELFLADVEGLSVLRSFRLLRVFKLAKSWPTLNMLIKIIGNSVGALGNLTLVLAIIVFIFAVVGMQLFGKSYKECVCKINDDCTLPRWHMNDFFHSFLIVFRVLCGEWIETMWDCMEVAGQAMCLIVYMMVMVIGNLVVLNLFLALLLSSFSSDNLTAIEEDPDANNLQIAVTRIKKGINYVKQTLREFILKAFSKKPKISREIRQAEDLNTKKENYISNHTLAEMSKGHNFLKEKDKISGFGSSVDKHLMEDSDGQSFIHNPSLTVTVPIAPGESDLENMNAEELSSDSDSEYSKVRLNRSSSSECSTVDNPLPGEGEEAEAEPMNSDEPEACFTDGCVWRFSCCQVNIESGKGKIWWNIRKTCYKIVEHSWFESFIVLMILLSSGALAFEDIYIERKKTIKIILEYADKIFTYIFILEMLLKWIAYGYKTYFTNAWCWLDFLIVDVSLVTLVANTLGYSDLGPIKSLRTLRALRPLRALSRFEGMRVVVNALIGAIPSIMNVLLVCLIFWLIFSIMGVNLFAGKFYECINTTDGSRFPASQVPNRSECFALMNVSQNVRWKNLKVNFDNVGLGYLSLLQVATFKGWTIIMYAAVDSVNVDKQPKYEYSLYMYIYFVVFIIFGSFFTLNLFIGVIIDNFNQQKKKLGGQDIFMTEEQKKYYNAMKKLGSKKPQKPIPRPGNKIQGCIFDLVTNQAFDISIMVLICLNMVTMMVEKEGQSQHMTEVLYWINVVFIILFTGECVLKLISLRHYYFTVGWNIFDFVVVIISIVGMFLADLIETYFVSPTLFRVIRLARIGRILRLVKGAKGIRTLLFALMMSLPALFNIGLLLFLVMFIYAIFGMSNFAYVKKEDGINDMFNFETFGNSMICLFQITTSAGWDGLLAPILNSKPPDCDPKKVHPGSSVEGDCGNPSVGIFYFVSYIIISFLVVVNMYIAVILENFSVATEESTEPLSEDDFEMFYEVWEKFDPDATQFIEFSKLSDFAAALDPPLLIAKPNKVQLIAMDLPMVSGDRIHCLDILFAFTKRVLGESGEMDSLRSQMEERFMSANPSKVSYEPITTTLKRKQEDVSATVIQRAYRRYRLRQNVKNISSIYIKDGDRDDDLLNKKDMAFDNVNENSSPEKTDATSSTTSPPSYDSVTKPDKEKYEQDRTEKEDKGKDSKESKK

hNav1.5 = hNav1.5 (Homo sapiens, UniProt Q14524); settings: IonWorks Quattro, read-out: IWQ Use Nav1.5
Sequence of hNav1.5 (Q14524 whole entry, looked up): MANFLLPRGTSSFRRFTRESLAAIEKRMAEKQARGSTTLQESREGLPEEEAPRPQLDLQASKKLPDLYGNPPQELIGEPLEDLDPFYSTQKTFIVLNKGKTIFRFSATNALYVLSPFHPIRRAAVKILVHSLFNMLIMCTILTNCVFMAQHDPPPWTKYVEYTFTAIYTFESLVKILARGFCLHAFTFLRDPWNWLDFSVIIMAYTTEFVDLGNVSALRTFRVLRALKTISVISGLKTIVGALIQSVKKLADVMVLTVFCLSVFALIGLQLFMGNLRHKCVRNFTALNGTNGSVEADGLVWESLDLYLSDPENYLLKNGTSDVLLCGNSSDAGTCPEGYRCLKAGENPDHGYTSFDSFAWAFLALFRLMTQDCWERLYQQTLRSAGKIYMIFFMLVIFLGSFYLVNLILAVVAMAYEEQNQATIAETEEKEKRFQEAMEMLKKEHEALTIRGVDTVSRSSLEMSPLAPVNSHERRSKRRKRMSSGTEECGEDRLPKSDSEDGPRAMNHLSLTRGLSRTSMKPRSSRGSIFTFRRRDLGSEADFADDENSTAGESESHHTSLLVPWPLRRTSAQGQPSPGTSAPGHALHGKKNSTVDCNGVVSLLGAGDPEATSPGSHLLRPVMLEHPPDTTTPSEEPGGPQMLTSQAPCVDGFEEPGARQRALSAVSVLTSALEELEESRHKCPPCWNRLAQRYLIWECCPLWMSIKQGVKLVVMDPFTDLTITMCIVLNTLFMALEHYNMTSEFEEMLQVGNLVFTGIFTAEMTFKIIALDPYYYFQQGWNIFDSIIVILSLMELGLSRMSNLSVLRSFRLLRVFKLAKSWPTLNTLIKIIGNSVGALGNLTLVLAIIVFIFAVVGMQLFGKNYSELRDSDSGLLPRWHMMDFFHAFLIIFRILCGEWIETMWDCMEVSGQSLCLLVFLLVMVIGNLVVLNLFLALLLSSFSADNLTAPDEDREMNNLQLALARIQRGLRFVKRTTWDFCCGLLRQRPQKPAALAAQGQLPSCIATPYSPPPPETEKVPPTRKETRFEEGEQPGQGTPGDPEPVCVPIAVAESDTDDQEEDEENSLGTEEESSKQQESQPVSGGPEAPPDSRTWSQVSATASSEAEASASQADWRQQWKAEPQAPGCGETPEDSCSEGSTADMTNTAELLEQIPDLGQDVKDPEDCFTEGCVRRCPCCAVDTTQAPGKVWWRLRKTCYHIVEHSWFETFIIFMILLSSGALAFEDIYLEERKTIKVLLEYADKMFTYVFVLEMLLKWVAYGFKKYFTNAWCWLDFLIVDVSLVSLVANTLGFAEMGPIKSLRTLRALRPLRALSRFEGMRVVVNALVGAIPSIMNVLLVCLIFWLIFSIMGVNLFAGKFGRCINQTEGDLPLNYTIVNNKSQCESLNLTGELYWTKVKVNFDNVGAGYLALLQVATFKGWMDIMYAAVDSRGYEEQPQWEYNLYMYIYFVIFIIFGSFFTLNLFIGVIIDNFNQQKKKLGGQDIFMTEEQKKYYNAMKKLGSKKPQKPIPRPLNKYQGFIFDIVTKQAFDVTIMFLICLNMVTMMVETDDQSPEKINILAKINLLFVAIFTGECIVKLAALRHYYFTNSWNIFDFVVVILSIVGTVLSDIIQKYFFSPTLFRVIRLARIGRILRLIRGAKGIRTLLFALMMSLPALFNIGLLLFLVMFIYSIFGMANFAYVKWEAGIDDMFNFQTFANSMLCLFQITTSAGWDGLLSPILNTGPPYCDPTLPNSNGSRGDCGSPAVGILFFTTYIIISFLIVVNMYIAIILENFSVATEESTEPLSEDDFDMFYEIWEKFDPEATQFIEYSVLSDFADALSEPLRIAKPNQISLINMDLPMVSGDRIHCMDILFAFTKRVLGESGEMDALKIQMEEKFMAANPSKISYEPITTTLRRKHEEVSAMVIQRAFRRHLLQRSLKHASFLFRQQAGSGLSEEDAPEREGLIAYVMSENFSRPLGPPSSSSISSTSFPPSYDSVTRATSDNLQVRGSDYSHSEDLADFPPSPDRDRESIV

[1] = use-dependent block, hNav1.7, read-out: IWQ Use Nav1.7

| Compound | IC50 (hNav1.3; use-dependent, […]) [nM] | IC50 (hNav1.7; use-dependent, […], read-out: IWQ Use Nav1.7 (μm)) [nM] | IC50 (hNav1.5; use-dependent, […]) [nM] | IC50 (hNav1.3; use-dependent block, hNav1.3) [nM] | IC50 (hNav1.7; [1]) [nM] | IC50 (hNav1.5; use-dependent block, hNav1.5) [nM] |
| --- | --- | --- | --- | --- | --- | --- |
| CC[C@H](C)[C@@H]1NC(=O)[C@@H]2CSSC[C@@H]3NC(=O)[C@H](C(C)C)NC(=O)[C@H](CC(C)C)NC(=O)[C@H](CC(N)=O)NC(=O)[C@@H]4CCCN4C(=O)[C@H](CCCNC(=N)N)NC(=O)[C@H](CSSC[C@H](NC(=O)[C@@H](N)CC(=O)O)C(=O)N[C@@H](CC(C)C)C(=O)NCC(=O)N[C@@H](Cc4ccccc4)C(=O)N[C@@H](CCSC)C(=O)N[C@@H](CCCNC(=N)N)C(=O)N[C@@H](CCCCN)C(=O)N2)NC(=O)[C@H](CSSC[C@@H](C(=O)N[C@@H](CCCCN)C(=O)N[C@@H](Cc2ccc(O)cc2)C(=O)N[C@H](C(=O)N[C@@H](Cc2ccccc2)C(=O)N[C@@H](Cc2c[nH]c4ccccc24)C(=O)O)C(C)C)NC(=O)[C@H](Cc2c[nH]c4ccccc24)NC(=O)[C@H](CCCCN)NC(=O)[C@H](Cc2c[nH]cn2)NC(=O)[C@H]([C@@H](C)O)NC(=O)[C@H](CCCNC(=N)N)NC(=O)[C@H](CO)NC3=O)NC(=O)[C@H](CCCCN)NC(=O)[C@H](CC(=O)O)NC(=O)[C@H](CC(N)=O)NC(=O)[C@H](CC(=O)O)NC(=O)[C@@H]2CCCN2C1=O [compound 133] | 110 | 480 | 8280 | – | – | – |
| CC[C@@H]1NC(=O)[C@H](CCCCN)NC(=O)[C@H](CCCNC(=N)N)NC(=O)[C@H](CCSC)NC(=O)[C@H](Cc2ccccc2)NC(=O)CNC(=O)[C@H](CC(C)C)NC(=O)[C@@H](NC(=O)[C@@H](N)CC(=O)O)CSSC[C@@H]2NC(=O)[C@H](CSSC[C@@H](C(=O)N[C@@H](CCCCN)C(=O)N[C@@H](Cc3ccc(O)cc3)C(=O)N[C@H](C(=O)N[C@@H](Cc3ccccc3)C(N)=O)C(C)C)NC(=O)[C@H](Cc3c[nH]c4ccccc34)NC(=O)[C@H](CCCCN)NC(=O)[C@H](Cc3c[nH]cn3)NC(=O)[C@H]([C@@H](C)O)NC(=O)[C@H](CCCNC(=N)N)NC(=O)[C@H](CO)NC(=O)[C@H](CC)NC(=O)[C@H](C(C)C)NC(=O)[C@H](CC(C)C)NC(=O)[C@H](CC(N)=O)NC(=O)[C@@H]3CCCN3C(=O)[C@H](CCCNC(=N)N)NC2=O)NC(=O)[C@H](CCCCN)NC(=O)[C@H](CC(=O)O)NC(=O)[C@H](CC(N)=O)NC(=O)[C@H](CC(=O)O)NC(=O)[C@@H]2CCCN2C(=O)[C@H]([C@@H](C)CC)NC1=O [compound 135] (H-DCLGFMRK[Abu]IPDNDKCCRPNLV[Abu]SRTHKWCKYVF-NH2; disulfide 2-17, 16-30) | – | – | – | 12300 | 8140 | 9210 |
| CC[C@H](C)[C@@H]1NC(=O)[C@@H]2CSSC[C@@H]3NC(=O)[C@H](C(C)C)NC(=O)[C@H](CC(C)C)NC(=O)[C@H](CC(N)=O)NC(=O)[C@@H]4CCCN4C(=O)[C@H](CCCNC(=N)N)NC(=O)[C@H](CSSC[C@H](NC(=O)[C@@H](N)CC(=O)O)C(=O)N[C@@H](CC(C)C)C(=O)NCC(=O)N[C@@H](Cc4ccc5ccccc5c4)C(=O)N[C@@H](CCSC)C(=O)N[C@@H](CCCNC(=N)N)C(=O)N[C@@H](CCCCN)C(=O)N2)NC(=O)[C@H](CSSC[C@@H](C(=O)N[C@@H](CCCCN)C(=O)N[C@@H](Cc2ccc(O)cc2)C(=O)N[C@H](C(=O)N[C@@H](Cc2ccc4ccccc4c2)C(N)=O)C(C)C)NC(=O)[C@H](Cc2c[nH]c4ccccc24)NC(=O)[C@H](CCCCN)NC(=O)[C@H](Cc2c[nH]cn2)NC(=O)[C@H]([C@@H](C)O)NC(=O)[C@H](CCCNC(=N)N)NC(=O)[C@H](CO)NC3=O)NC(=O)[C@H](CCCCN)NC(=O)[C@H](CC(=O)O)NC(=O)[C@H](CC(N)=O)NC(=O)[C@H](CC(=O)O)NC(=O)[C@@H]2CCCN2C1=O [compound 136] (H-DCLG[2Nal]MRKCIPDNDKCCRPNLVCSRTHKWCKYV[2Nal]-NH2; disulfide 2-17, 9-23, 16-30) | – | – | – | 30 | 140 | 5140 |
| CC[C@H](C)[C@@H]1NC(=O)[C@@H]2CSSC[C@@H]3NC(=O)[C@H](C(C)C)NC(=O)[C@H](CC(C)C)NC(=O)[C@H](CC(N)=O)NC(=O)[C@@H]4CCCN4C(=O)[C@H](CCCNC(=N)N)NC(=O)[C@H](CSSC[C@H](NC(=O)[C@@H](N)CC(=O)O)C(=O)N[C@@H](CC(C)C)C(=O)NCC(=O)N[C@@H](Cc4ccc5ccccc5c4)C(=O)N[C@@H](CCSC)C(=O)N[C@@H](CCCNC(=N)N)C(=O)N[C@@H](CCCCN)C(=O)N2)NC(=O)[C@H](CSSC[C@@H](C(=O)N[C@@H](CCCCN)C(=O)N[C@@H](Cc2ccc(O)cc2)C(=O)N[C@H](C(=O)N[C@@H](Cc2cccc4ccccc24)C(N)=O)C(C)C)NC(=O)[C@H](Cc2c[nH]c4ccccc24)NC(=O)[C@H](CCCCN)NC(=O)[C@H](Cc2c[nH]cn2)NC(=O)[C@H]([C@@H](C)O)NC(=O)[C@H](CCCNC(=N)N)NC(=O)[C@H](CO)NC3=O)NC(=O)[C@H](CCCCN)NC(=O)[C@H](CC(=O)O)NC(=O)[C@H](CC(N)=O)NC(=O)[C@H](CC(=O)O)NC(=O)[C@@H]2CCCN2C1=O [compound 137] (H-DCLG[2Nal]MRKCIPDNDKCCRPNLVCSRTHKWCKYV[1Nal]-NH2; disulfide 2-17, 9-23, 16-30) | – | – | – | 20 | 110 | 3150 |
| CC[C@H](C)[C@@H]1NC(=O)[C@@H]2CSSC[C@@H]3NC(=O)[C@H](C(C)C)NC(=O)[C@H](CC(C)C)NC(=O)[C@H](CC(N)=O)NC(=O)[C@@H]4CCCN4C(=O)[C@H](CCCNC(=N)N)NC(=O)[C@H](CSSC[C@H](NC(=O)[C@@H](N)CC(=O)O)C(=O)N[C@@H](CC(C)C)C(=O)NCC(=O)N[C@@H](Cc4ccccc4)C(=O)N[C@@H](CCSC)C(=O)N[C@@H](CCCNC(=N)N)C(=O)N[C@@H](CCCCN)C(=O)N2)NC(=O)[C@H](CSSC[C@@H](C(=O)N[C@@H](CCCCN)C(=O)N[C@@H](Cc2ccc(O)cc2)C(=O)N[C@H](C(=O)N[C@@H](Cc2cccc4ccccc24)C(=O)N[C@@H](Cc2c[nH]c4ccccc24)C(N)=O)C(C)C)NC(=O)[C@H](Cc2c[nH]c4ccccc24)NC(=O)[C@H](CCCCN)NC(=O)[C@H](Cc2c[nH]cn2)NC(=O)[C@H]([C@@H](C)O)NC(=O)[C@H](CCCNC(=N)N)NC(=O)[C@H](CO)NC3=O)NC(=O)[C@H](CCCCN)NC(=O)[C@H](CC(=O)O)NC(=O)[C@H](CC(N)=O)NC(=O)[C@H](CC(=O)O)NC(=O)[C@@H]2CCCN2C1=O [compound 138] (H-DCLGFMRKCIPDNDKCCRPNLVCSRTHKWCKYV[1Nal]W-NH2; disulfide 2-17, 9-23, 16-30) | – | – | – | 70 | 130 | 2570 |
| CC[C@H](C)[C@@H]1NC(=O)[C@@H]2CSSC[C@@H]3NC(=O)[C@H](C(C)C)NC(=O)[C@H](CC(C)C)NC(=O)[C@H](CC(N)=O)NC(=O)[C@@H]4CCCN4C(=O)[C@H](CCCNC(=N)N)NC(=O)[C@H](CSSC[C@H](NC(=O)[C@@H](N)CC(=O)O)C(=O)N[C@@H](CC(C)C)C(=O)NCC(=O)N[C@@H](Cc4ccccc4)C(=O)N[C@@H](CCSC)C(=O)N[C@@H](CCCNC(=N)N)C(=O)N[C@@H](CCCCN)C(=O)N2)NC(=O)[C@H](CSSC[C@@H](C(=O)N[C@@H](CCCCN)C(=O)N[C@@H](Cc2ccc(O)cc2)C(=O)N[C@H](C(=O)N[C@@H](Cc2ccc4ccccc4c2)C(=O)N[C@@H](Cc2c[nH]c4ccccc24)C(N)=O)C(C)C)NC(=O)[C@H](Cc2c[nH]c4ccccc24)NC(=O)[C@H](CCCCN)NC(=O)[C@H](Cc2c[nH]cn2)NC(=O)[C@H]([C@@H](C)O)NC(=O)[C@H](CCCNC(=N)N)NC(=O)[C@H](CO)NC3=O)NC(=O)[C@H](CCCCN)NC(=O)[C@H](CC(=O)O)NC(=O)[C@H](CC(N)=O)NC(=O)[C@H](CC(=O)O)NC(=O)[C@@H]2CCCN2C1=O [compound 139] (H-DCLGFMRKCIPDNDKCCRPNLVCSRTHKWCKYV[2Nal]W-NH2; disulfide 2-17, 9-23, 16-30) | – | – | – | 50 | 110 | 2120 |
| CC[C@H](C)[C@@H]1NC(=O)[C@@H](NC(=O)[C@H](CCCCN)NC(=O)[C@H](CCCNC(=N)N)NC(=O)[C@H](CCSC)NC(=O)[C@H](Cc2ccccc2)NC(=O)CNC(=O)[C@H](CC(C)C)NC(=O)[C@H](C)NC(=O)[C@@H](N)CC(=O)O)CSSC[C@@H]2NC(=O)[C@H](C(C)C)NC(=O)[C@H](CC(C)C)NC(=O)[C@H](CC(N)=O)NC(=O)[C@@H]3CCCN3C(=O)[C@H](CCCNC(=N)N)NC(=O)[C@H](C)NC(=O)[C@H](CSSC[C@@H](C(=O)N[C@@H](CCCCN)C(=O)N[C@@H](Cc3ccc(O)cc3)C(=O)N[C@H](C(=O)N[C@@H](Cc3ccccc3)C(N)=O)C(C)C)NC(=O)[C@H](Cc3c[nH]c4ccccc34)NC(=O)[C@H](CCCCN)NC(=O)[C@H](Cc3c[nH]cn3)NC(=O)[C@H]([C@@H](C)O)NC(=O)[C@H](CCCNC(=N)N)NC(=O)[C@H](CO)NC2=O)NC(=O)[C@H](CCCCN)NC(=O)[C@H](CC(=O)O)NC(=O)[C@H](CC(N)=O)NC(=O)[C@H](CC(=O)O)NC(=O)[C@@H]2CCCN2C1=O [compound 140] (H-DALGFMRKCIPDNDKCARPNLVCSRTHKWCKYVF-NH2; disulfide 9-23, 16-30) | – | – | – | 790 | 2450 | 18900 |
